{"source": "paper PMC7824826", "about": "“SZR-104, a Novel Kynurenic Acid Analogue with High Permeability through the Blood–Brain Barrier” (Pharmaceutics, 2021)", "key": {"[1]": {"system": "PACAP mRNA expression in nucleus trigeminalis caudalis", "parameters": "method as in PMID 29387039", "details": "animal model of migraine; cited from earlier work"}, "[2]": {"system": "c-fos and glutamate in NTC neurons", "parameters": "method as in PMID 28337634", "details": "systematic injection; cited from earlier work"}, "MAPK and NFκB": {"system": "MAPK and NFκB", "details": "intraperitoneally administered; cited from earlier work"}, "[3]": {"system": "transgenic mouse model of HD", "parameters": "method as in PMID 21194001", "details": "cited from earlier work"}, "NTC": {"system": "NTC", "parameters": "method as in PMID 27919017", "details": "cited from earlier work"}, "[4]": {"system": "in vitro blood–brain barrier model (primary rat brain endothelial cells and pericytes on Transwell filters, glial-conditioned media)", "assay": "Permeability assay through the in vitro BBB model", "type": "in vitro ADME", "details": "for Papp % (permeability coefficient compared to KYNA) / Papp% (permeability coefficient compared to sodium-fluorescein): 10 µM in top compartment; for Papp % (permeability coefficient compared to KYNA): N = 3, relative to KYNA; for Differences among permeability of KYNA, xanthurenic acid and 39B: 30 and 60 min; for Papp% (permeability coefficient compared to sodium-fluorescein): N = 2, relative to sodium-fluorescein; for Permeability compared to other analogues: p < 0.05; for BBB penetration compared to the other derivatives tested: conclusion", "procedure": "Primary rat brain endothelial cells (RBECs) were isolated from 2-week old rats. Animals were sacrificed by cervical dislocation. Briefly, after removal of meninges, cerebral cortices were cut into small pieces and digested in two steps with 1 mg/mL collagenase type 2 and 1 mg/mL collagenase/dispase, followed by centrifugation on a percoll gradient (all from Sigma-Aldrich, St. Louis, MO, USA). Isolated microvessels were plated on fibronectin/collagen-coated dishes. Endothelial cells growing out of the microvessels were cultured in DMEM/F12 (Thermo Fisher Scientific, Waltham, MA, USA), 10% plasma-derived serum (PDS, First Link UK Ltd, Birmingham, UK) and growth factors. In the first two days, 4 µg/mL puromycin (Sigma-Aldrich) was added to remove contaminating cells. Cells were frozen in liquid nitrogen and passage 1 cells were further used. Rat brain pericytes were obtained from cerebral microvessels plated onto rat-tail collagen-coated dishes in PM medium (ScienCell, Carlsbad, CA, USA) complemented with 5% fetal bovine serum (FBS) and penicillin/streptomycin. Cells were split into new dishes, frozen in liquid nitrogen and passage 4 cells were further used. Glial cultures (>90% astrocytes) were prepared from newborn rats and cultured on poly-L-lysine-coated surfaces in DMEM (Thermo Fisher Scientific) and 10% FBS (Thermo Fisher Scientific). After reaching confluence, conditioned media was collected twice a week, centrifuged, sterile filtered and kept at −20 °C.\nPericytes were plated onto the backside of 12-well semipermeable filters (Corning-Costar Transwell Clear; pore size: 0.4 μm; 1.5 × 10^4 cells/filter). The next day, RBECs were plated onto the upper surface of the filters. […] TEER was followed until reaching plateau of 150–250 Ohm × cm^2.\nTranswell filters containing endothelial cells and pericytes were removed from the CellZscope instrument. Filters were washed with Ringer-HEPES solution (pH = 7.4). […] The bottom compartment was loaded with Ringer-HEPES. Filters were placed to 37 °C and gentle shaking (110 rpm) was applied. Samples were taken from the basolateral side after 30 and 60 min. The concentrations of the samples were quantitated as described below and apparent permeability was calculated using the formula: Papp = dQ/(dT × A × C0), where dQ is the transported amount, dT is the incubation time, A is the surface of filter (1.12 cm^2), and C0 is the initial concentration. Statistical analysis was performed with ANOVA and Bonferroni’s post-hoc test.\nThe concentrations of the samples were quantitated with an Agilent 1100 HPLC system (Agilent Technologies, Santa Clara, CA, USA), consisting of a binary pump, a micro vacuum degasser, a thermostated column compartment, an automatic liquid sampler, a MS detector (LCMSD VL), and ChemStation data managing software. Chromatographic separations with the HPLC-MS system were performed on a Kinetex C18 column, 100 × 4.6 mm 2.6 μm particle size (Phenomenex, Torrance, CA, USA) with a mobile phase composition of 0.05% aqueous HCOOH/ACN = 90/10 (v/v), applying isocratic elution. The flow rate and the injection volume were 1 mL/min and 20 µL, respectively. The mass spectrometer was used in positive electrospray ionization mode. The drying gas temperature, drying gas flow rate, nebulizer pressure and capillary voltage were 350 °C, 13 L/min, 60 psi and 3500 V, respectively. […]"}, "[5]": {"system": "human lymphoma U-937 cells", "parameters": "method as in PMID 31316502", "details": "U-937 cells infected with Staphylococcus aureus; cited from earlier work"}, "hippocampus": {"system": "hippocampus", "parameters": "method as in PMID 22231843", "details": "systemic administration; cited from earlier work"}}, "data": [{"smiles": "CN(C)CCNC(=O)c1cc(=O)c2ccccc2[nH]1", "note": "[SZR-72, N-(2-N,N-dimethylaminoethyl)-4-oxo-1H-quinoline-2-carboxamide]", "values": [{"measurement": "Electrical TRG stimulation-induced PACAP mRNA expression in NTC", "setting": "[1]", "value": "decreased"}, {"measurement": "Elevated levels of c-fos and glutamate in NTC neurons", "setting": "[2]", "value": "abolished"}, {"measurement": "Overexpression of MAPK and NFκB", "setting": "MAPK and NFκB", "value": "reduced"}, {"measurement": "Atrophy of the striatal neurons", "setting": "[3]", "value": "completely prevented"}, {"measurement": "Hypolocomotion", "setting": "[3]", "value": "ameliorated"}, {"measurement": "Lifetime of mice", "setting": "[3]", "value": "prolonged"}, {"measurement": "Nitroglycerin-induced neuronal activation in NTC (antihyperalgesic effect)", "setting": "NTC", "value": "attenuating"}]}, {"smiles": "O=C(O)c1cc(=O)c2ccccc2[nH]1", "note": "[KYNA, kynurenic acid]", "values": [{"measurement": "Papp % (permeability coefficient compared to KYNA)", "setting": "[4]; 30 min", "value": 100, "unit": "%"}, {"measurement": "Papp % (permeability coefficient compared to KYNA)", "setting": "[4]; 60 min", "value": 100, "unit": "%"}, {"measurement": "Differences among permeability of KYNA, xanthurenic acid and 39B", "setting": "[4]; 10 µM", "value": "not statistically significant"}, {"measurement": "Electrical TRG stimulation-induced PACAP mRNA expression in NTC", "setting": "[1]", "value": "decreased"}, {"measurement": "Elevated levels of c-fos and glutamate in NTC neurons", "setting": "[2]", "value": "abolished"}, {"measurement": "Overexpression of MAPK and NFκB", "setting": "MAPK and NFκB", "value": "reduced"}, {"measurement": "Nitroglycerin-induced neuronal activation in NTC (antihyperalgesic effect)", "setting": "NTC", "value": "attenuating"}]}, {"smiles": "CN(C)CCNC(=O)c1nc2ccccc2c(O)c1CN1CCOCC1", "note": "[SZR-104, N-(2-(dimethylamino)ethyl)-3-(morpholinomethyl)-4-hydroxyquinoline-2-carboxamide]", "values": [{"measurement": "Papp % (permeability coefficient compared to KYNA)", "setting": "[4]; 30 min", "value": 210, "unit": "%"}, {"measurement": "Papp% (permeability coefficient compared to sodium-fluorescein)", "setting": "[4]; 60 min", "value": 325, "unit": "%"}, {"measurement": "Papp % (permeability coefficient compared to KYNA)", "setting": "[4]; 60 min", "value": 222, "unit": "%"}, {"measurement": "Permeability compared to other analogues", "setting": "[4]; 10 µM, 60 min", "value": "significantly higher"}, {"measurement": "Permeability compared to KYNA, xanthurenic acid or 39B", "setting": "[4]; 10 µM, both at 30 min and 60 min, p < 0.01", "value": "significantly higher permeability"}, {"measurement": "BBB penetration compared to the other derivatives tested", "setting": "[4]", "value": "high BBB penetration"}, {"measurement": "TNF-α production", "setting": "[5]", "value": "reduced"}, {"measurement": "mRNA expression of TSG-6", "setting": "[5]", "value": "increased"}, {"measurement": "Population spike activity in the hippocampus", "setting": "hippocampus", "value": "decreased"}, {"measurement": "Protection against pentylenetetrazol-induced epileptiform seizures", "setting": "hippocampus", "value": "provided protection"}]}, {"smiles": "CN(C)CCNC(=O)c1nc2ccccc2c(O)c1CN1CCCCC1", "note": "[SZR-100]", "values": [{"measurement": "Papp% (permeability coefficient compared to sodium-fluorescein)", "setting": "[4]; 60 min", "value": 177, "unit": "%"}]}, {"smiles": "CN(C)CCNC(=O)c1nc2ccccc2c(O)c1CN1CCCC1", "note": "[SZR-106]", "values": [{"measurement": "Papp% (permeability coefficient compared to sodium-fluorescein)", "setting": "[4]; 60 min", "value": 230, "unit": "%"}]}, {"smiles": "O=C(O)c1[nH]c2c(O)cccc2c(=O)c1CN1CCOCC1", "note": "[39B, 8-Hydroxy-3-(Morpholinomethyl)-4-Oxo-1,4-Dihydroquinoline-2-Carboxylic Acid]", "values": [{"measurement": "Papp % (permeability coefficient compared to KYNA)", "setting": "[4]; 30 min", "value": 54, "unit": "%"}, {"measurement": "Papp % (permeability coefficient compared to KYNA)", "setting": "[4]; 60 min", "value": 74, "unit": "%"}, {"measurement": "Differences among permeability of KYNA, xanthurenic acid and 39B", "setting": "[4]; 10 µM", "value": "not statistically significant"}]}, {"smiles": "O=C(NCCN1CCCC1)c1nc2ccccc2c(O)c1CN1CCOCC1", "note": "[SZR-105]", "values": [{"measurement": "Papp% (permeability coefficient compared to sodium-fluorescein)", "setting": "[4]; 60 min", "value": 319, "unit": "%"}, {"measurement": "Permeability compared to other analogues", "setting": "[4]; 10 µM, 60 min", "value": "significantly higher"}, {"measurement": "BBB penetration compared to the other derivatives tested", "setting": "[4]", "value": "high BBB penetration"}, {"measurement": "TNF-α production", "setting": "[5]", "value": "reduced"}, {"measurement": "mRNA expression of TSG-6", "setting": "[5]", "value": "increased"}]}, {"smiles": "O=C(NCCN1CCCC1)c1nc2ccccc2c(O)c1CN1CCCC1", "note": "[SZR-107]", "values": [{"measurement": "Papp% (permeability coefficient compared to sodium-fluorescein)", "setting": "[4]; 60 min", "value": 156, "unit": "%"}]}, {"smiles": "O=C(NCCN1CCCC1)c1nc2ccccc2c(O)c1CN1CCCCC1", "note": "[SZR-101]", "values": [{"measurement": "Papp% (permeability coefficient compared to sodium-fluorescein)", "setting": "[4]; 60 min", "value": 131, "unit": "%"}]}, {"smiles": "O=C(O)c1cc(O)c2cccc(O)c2n1", "note": "[xanthurenic acid]", "values": [{"measurement": "Papp % (permeability coefficient compared to KYNA)", "setting": "[4]; 30 min", "value": 110, "unit": "%"}, {"measurement": "Papp % (permeability coefficient compared to KYNA)", "setting": "[4]; 60 min", "value": 89, "unit": "%"}, {"measurement": "Differences among permeability of KYNA, xanthurenic acid and 39B", "setting": "[4]; 10 µM", "value": "not statistically significant"}]}]}
